Laboratory results as given in patent publication US20250066338A1, “CERTAIN 3-AZABICYCLO[3.1.0]HEXANES AS GLP-1 RECEPTOR MODULATORS” (AstraZeneca AB, priority 2021, published 2025).

Columns and labels:
human GLP-1R receptor = human GLP-1R receptor (Homo sapiens (Human), UniProt P43220, L260F); assay: CHOK1 GLP-1R cAMP Assay; format: cell-based; details: CHO-K1 cell line stably expressing human GLP-1R; HTRF cAMP; agonist activity
Method: A cell line stably expressing the human GLP-1R receptor (NM 002062.5, including the naturally-occurring variant Leu260Phe) in a CHO-K1 (ATCC® CCL-61™) was used for assay.
GLP-1 receptor mediated agonist activity was determined in a cell based assay measuring cyclic adenosine monophosphate (cAMP) levels in cells using Homogeneous Time-Resolved Fluorescence (HTRF) cAMP detection kit (CisBio catalog #62AM4PEC, cAMP Gs Dynamic range kit). The cAMP detection method is based on a competitive immunoassay, in which cAMP produced by the cells and cAMP labeled with the dye d2 compete for binding to a Europium-Cryptate-labeled anti-cAMP antibody. The specific HTRF signal is inversely proportional to the concentration of cAMP.
Compounds were added to individual well in 384 well-assay plates (Greiner #784076) using an Echo (LabCyte) dispenser from 10 mM stocks. Varying concentration of compounds were added to wells, and DMSO was used to normalize each well to a volume of 100 nL. A dose response curve of GLP1(7-36)NH2 (Bachem H-6795) was included in each run. 5 μL of cAMP concentration response standards are applied in specified wells in the assay plates. Cryo-preserved cells are thawed and resuspended in assay buffer pre-heated to 37° C. (20 mM HEPES pH 7.4, lx Hank's Balanced Salt Solution (HBSS, Life Technologies #14065) supplemented with 0.1% (w/v) bovine serum albumin (Sigma, A-7030). Cells were centrifuged at 250*g for 5 min at rt, and resuspended in room tempered assay buffer to a final density of 0.16*10^6 cell/mL, to deliver 800 cells/well. 5 μL of assay buffer with 1 mM 3-isobutyl-1-methylxanthin (IBMX; Sigma cat I-7018) was dispensed per well in assay plates using a multidrop combi (Thermo Scientific) subsequently 5 μL of cell suspension was distributed to relevant wells in the assay using a multidrop dispenser. Assay plates were incubated 20 min at rt.
Detection reagents, Europium-Cryptate-labeled anti-cAMP antibody and cAMP labeled with the dye d2, are diluted in lysis buffer, provided by the manufacturer. 5 μL of each detection reagent is supplemented to each assay well using a multidrop dispenser. Assay plates are incubated in the dark for at least one h. The HTRF signal is measured using the HTRF module (excitation: 337 nm, emission A: 665 nm and emission B: 620 nm) in Pherastar FSX (BMG Labtech).
Raw data were converted to pM cAMP using the cAMP standard curve included in each run. Converted data were further analyzed in Genedata Screener (Genedata) and EC50 determinations were made from agonist dose-response curves analyzed with a curve fitting program using a 4-parameter logistic dose response equation (Equation y=A+((B−A)/1+((C/x)^D))) where A is no stimulation, B is full stimulation, C is the EC50 and D is the Hill slope). The percent effect was determined relative to a saturating concentration of a full GLP-1R agonist (GLP1(7-36)NH2 has 100% effect in this assay setup).

[1] = target: GLP-1R in EndoC-βH1 cells (Homo sapiens (Human), UniProt P43220); assay: EndoC cAMP Accumulation Assay; format: cell-based; details: EndoC-βH1 human pancreatic beta cell line; HTRF cAMP accumulation
From the text: EndoC cAMP Accumulation Assay
A HTRF cAMP assay (cAMP Gs dynamic kit; CisoBio Cat #62AM4PEJ) was used to identify agonists of GLP-1R in a pancreatic insulinoma cell line (EndoC-βH1). […] EndoC-βH1 cells have detectable GLP-1R messenger ribonucleic acid (mRNA) as detected by quantitative polymerase chain reaction (qPCR). […] The EndoC-βH1 cell line is a valid model of human beta cells and applicable for screenings to identify novel drug target candidates (Mol. Metab., 2018, 8, 144-157). CisBio HTRF cAMP kits are based on a competitive immunoassay using cryptate-labelled anti-cAMP antibody and d2-labeled cAMP. The detection kit is intended for the direct quantitative determination of cAMP. The specific signal (i.e. energy transfer) is inversely proportional to the concentration of cAMP in the standard or sample. Test compounds (10 mM in DMSO) were diluted into assay buffer (HBSS (Sigma #H8264) supplemented with 25 mM HEPES (Gibco #15630, pH 7.4), 0.1% BSA (Sigma #A3059) and 0.5 mM IBMX (Sigma #17018) included fresh on the day of the assay) into 96 well U-bottom plates (Greiner #650201). Diluted compounds were transferred to ECHO source polypropylene plates (Labcyte #P-05525) and dose response curves were dispensed acoustically using ECHO 550 into black shallow-well u-bottom 384-well HTRF Assay Plates (Corning 4514).
Cryovials of EndoC-H1 (supplied at 1×10e^7 cells/vial) were used directly for screening. The cryovials and were removed from N2 (1) and thawed rapidly in a 37° C. water bath. The cells were resuspended in assay buffer and centrifuged at 300 g for 5 min. Cells were resuspended in assay buffer at the appropriate concentration, typically at 12e5 cells per mL (3000 cells per well, dependent on cell batch) and 2.5 μL diluted cells were added to all wells of destination plate by Multidrop combi reagent dispenser (Thermofisher). The plates were incubated at rt for 30 min. The assay was stopped by adding 2.5 μL anti-cAMP cryptate solution to all wells and 2.5 μL cAMP-d2 solution (both diluted 1:20 in lysis buffer) to columns 1-22 by Combi drop. A volume of 2.5 μL cAMP-d2 solution was added to wells E23 to P24 and 2.5 μL lysis buffer added to wells A23 to D24 by multichannel pipette. The plates were incubated at rt for 1 h and read on an Envision plate reader using excitation wavelength of 320 nm and emission of […] and 660 nm.
Raw data from Envision is converted to % DeltaF according to the manufacturer's instructions. Dose response curves are analysed via 4-Parameter Logistical Analysis and assay plate Z′ values obtained. Samples are graphed as percentage (%) activation plots compared to GIP (1-42, Bachem H-5645) with assay window defined by negative control as basal cell cAMP levels and positive control are defined by maximum GIP (82.5 nM) signal. GLP1 (7-36 amide, Bachem H-6795) dose response curve was included on all plates.

Chain of human GLP-1R receptor (P43220 24-463 L260F): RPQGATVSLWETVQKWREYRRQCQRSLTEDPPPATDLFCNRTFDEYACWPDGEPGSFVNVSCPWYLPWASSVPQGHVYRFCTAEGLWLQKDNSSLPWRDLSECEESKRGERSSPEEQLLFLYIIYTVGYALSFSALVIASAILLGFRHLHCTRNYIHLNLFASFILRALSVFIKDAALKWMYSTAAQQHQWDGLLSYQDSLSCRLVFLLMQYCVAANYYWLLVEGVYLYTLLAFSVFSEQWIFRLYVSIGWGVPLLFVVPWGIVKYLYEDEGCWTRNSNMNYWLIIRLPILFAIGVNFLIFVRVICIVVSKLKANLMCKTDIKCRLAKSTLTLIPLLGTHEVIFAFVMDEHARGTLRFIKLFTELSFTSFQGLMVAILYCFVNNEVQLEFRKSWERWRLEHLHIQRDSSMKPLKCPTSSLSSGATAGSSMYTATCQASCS
Chain of GLP-1R in EndoC-βH1 cells (P43220 24-463): as the sequence (P43220 24-463 L260F) above, with F237L counted along it

Row | Molecule | EC50 (human GLP-1R receptor) | EC50 [1]
1 | 2-(((1R,5S,6S)-6-(6-((4-Cyano-2-fluorobenzyl)oxy)pyridin-2-yl)-3-azabicyclo[3.1.0]hexan-3-yl)methyl)-4-methoxy-1-(((S)-oxetan-2-yl)methyl)-1H-benzo[d]imidazole-6-carboxylic acid [Example 5] | 240 nM | 200 nM
2 | COc1cc(C(=O)O)cc2c1nc(CN1C[C@@H]3[C@H](C1)[C@H]3c1nc(OCc3ccc(C#N)cc3F)ccc1F)n2C[C@@H]1CCO1 [Example 1, 2-(((1R,5S,6S)-6-(6-((4-Cyano-2-fluorobenzyl)oxy)-3-fluoropyridin-2-yl)-3-azabicyclo[3.1.0]hexan-3-yl)methyl)-4-methoxy-1-(((S)-oxetan-2-yl)methyl)-1H-benzo[d]imidazole-6-carboxylic acid] | 7.7 nM | 5 nM
3 | N#Cc1ccc(COc2ccc(F)c([C@H]3[C@@H]4CN(Cc5nc6ccc(C(=O)O)cc6n5C[C@@H]5CCO5)C[C@@H]43)n2)c(F)c1 [Example 2, 2-(((1R,5S,6S)-6-(6-((4-Cyano-2-fluorobenzyl)oxy)-3-fluoropyridin-2-yl)-3-azabicyclo[3.1.0]hexan-3-yl)methyl)-1-(((S)-oxetan-2-yl)methyl)-1H-benzo[d]imidazole-6-carboxylic acid] | 30 nM | 26 nM
4 | N#Cc1ccc(COc2cccc([C@H]3[C@@H]4CN(Cc5nc6ccc(C(=O)O)cc6n5C[C@@H]5CCO5)C[C@@H]43)n2)c(F)c1 [Example 3, 2-(((1R,5S,6S)-6-(6-((4-Cyano-2-fluorobenzyl)oxy)pyridin-2-yl)-3-azabicyclo[3.1.0]hexan-3-yl)methyl)-1-(((S)-oxetan-2-yl)methyl)-1H-benzo[d]imidazole-6-carboxylic acid] | 75 nM | 21 nM
5 | COc1cc(C(=O)O)cc2c1nc(CN1C[C@@H]3[C@H](C1)[C@H]3c1cccc(OCc3ccc(C#N)cc3F)n1)n2C[C@@H]1CCO1 [Example 4, 2-(((1R,5S,6S)-6-(6-((4-Cyano-2-fluorobenzyl)oxy)pyridin-2-yl)-3-azabicyclo[3.1.0]hexan-3-yl)methyl)-4-methoxy-1-(((S)-oxetan-2-yl)methyl)-1H-benzo[d]imidazole-6-carboxylic acid] | 12 nM | 5.8 nM
6 | N#Cc1ccc(COc2cccc([C@H]3[C@@H]4CN(Cc5nc6ccc(C(=O)O)cc6n5C[C@@H]5CCCO5)C[C@@H]43)n2)c(F)c1 [Example 6, 2-(((1R,5S,6S)-6-(6-((4-Cyano-2-fluorobenzyl)oxy)pyridin-2-yl)-3-azabicyclo[3.1.0]hexan-3-yl)methyl)-1-(((S)-tetrahydrofuran-2-yl)methyl)-1H-benzo[d]imidazole-6-carboxylic acid] |  | 290 nM
7 | CCn1cncc1Cn1c(CN2C[C@@H]3[C@H](C2)[C@H]3c2nc(OCc3ccc(C#N)cc3F)ccc2F)nc2c(OC)cc(C(=O)O)cc21 [Example 7, 2-(((1R,5S,6r)-6-(6-((4-Cyano-2-fluorobenzyl)oxy)-3-fluoropyridin-2-yl)-3-azabicyclo[3.1.0]hexan-3-yl)methyl)-1-((1-ethyl-1H-imidazol-5-yl)methyl)-4-methoxy-1H-benzo[d]imidazole-6-carboxylic acid] | 17 nM | 38 nM
8 | N#Cc1ccc(COc2cccc([C@H]3[C@@H]4CN(Cc5nc6c(Cl)cc(C(=O)O)cc6n5C[C@@H]5CCO5)C[C@@H]43)n2)c(F)c1 [Example 8, 4-Chloro-2-(((1R,5S,6S)-6-(6-((4-cyano-2-fluorobenzyl)oxy)pyridin-2-yl)-3-azabicyclo[3.1.0]hexan-3-yl)methyl)-1-(((S)-oxetan-2-yl)methyl)-1H-benzo[d]imidazole-6-carboxylic acid] | 20 nM | 10 nM
9 | Cc1cc(C(=O)O)cc2c1nc(CN1C[C@@H]3[C@H](C1)[C@H]3c1cccc(OCc3ccc(C#N)cc3F)n1)n2C[C@@H]1CCO1 [Example 9, 2-(((1R,5S,6S)-6-(6-((4-Cyano-2-fluorobenzyl)oxy)pyridin-2-yl)-3-azabicyclo[3.1.0]hexan-3-yl)methyl)-4-methyl-1-(((S)-oxetan-2-yl)methyl)-1H-benzo[d]imidazole-6-carboxylic acid] | 78 nM | 56 nM

The next lines start with the values.

Row | EC50 (human GLP-1R receptor) | EC50 [1] | Molecule
10 | 42 nM | 88 nM | CCn1cncc1Cn1c(CN2C[C@@H]3[C@H](C2)[C@H]3c2cccc(OCc3ccc(C#N)cc3F)n2)nc2ccc(C(=O)O)cc21 [Example 10, 2-(((1R,5S,6r)-6-(6-((4-Cyano-2-fluorobenzyl)oxy)pyridin-2-yl)-3-azabicyclo[3.1.0]hexan-3-yl)methyl)-1-((1-ethyl-1H-imidazol-5-yl)methyl)-1H-benzo[d]imidazole-6-carboxylic acid]
11 | 17 nM | 6.5 nM | COc1cc(C(=O)O)cc2c1nc(CN1C[C@@H]3[C@H](C1)[C@H]3c1cccc(OCc3ccc(Cl)cc3F)n1)n2C[C@@H]1CCO1 [Example 11, 2-(((1R,5S,6S)-6-(6-((4-Chloro-2-fluorobenzyl)oxy)pyridin-2-yl)-3-azabicyclo[3.1.0]hexan-3-yl)methyl)-4-methoxy-1-(((S)-oxetan-2-yl)methyl)-1H-benzo[d]imidazole-6-carboxylic acid]
12 | 97 nM | 150 nM | CCn1cncc1Cn1c(CN2C[C@@H]3[C@H](C2)[C@H]3c2cccc(OCc3ccc(Cl)cc3F)n2)nc2ccc(C(=O)O)cc21 [Example 12, 2-(((1R,5S,6r)-6-(6-((4-Chloro-2-fluorobenzyl)oxy)pyridin-2-yl)-3-azabicyclo[3.1.0]hexan-3-yl)methyl)-1-((1-ethyl-1H-imidazol-5-yl)methyl)-1H-benzo[d]imidazole-6-carboxylic acid]
13 | 30 nM | 7.4 nM | CCn1cncc1Cn1c(CN2C[C@@H]3[C@H](C2)[C@H]3c2cccc(OCc3ccc(Cl)cc3F)n2)nc2c(OC)cc(C(=O)O)cc21 [Example 14, 2-(((1R,5S,6r)-6-(6-((4-Chloro-2-fluorobenzyl)oxy)pyridin-2-yl)-3-azabicyclo[3.1.0]hexan-3-yl)methyl)-1-((1-ethyl-1H-imidazol-5-yl)methyl)-4-methoxy-1H-benzo[d]imidazole-6-carboxylic acid]
